# Experimental data published in patent US6737383B1, “Herbicidal oxadiazolidines” (priority 1999, dated 2004).
# How the values were obtained:
# [1] = test system: giant foxtail; assay: Test B pre/postemergence giant foxtail; type: in vivo, Setaria faberii
# Method in brief: (§1)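 Herbicidal effect was estimated by eye on a ten-point control scale after plants spent twelve to sixteen days in a greenhouse following soil or foliar treatment. Foliar sprays targeted plants at one to four leaves; all doses were formulated in a non-phytotoxic solvent with surfactant.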
# [2] = test system: rape; assay: Test B pre/postemergence rape; type: in vivo, Brassica napus
# Method in brief: as §1
# [3] = test system: wild oat; assay: Test B pre/postemergence wild oat; type: in vivo, Avena fatua
# Method in brief: as §1
# [4] = test system: blackgrass; assay: Test B pre/postemergence blackgrass; type: in vivo, Alopecurus myosuroides
# Method in brief: as §1
# [5] = test system: duck salad; assay: Test B flood test duck salad; type: in vivo, Heteranthera limosa
# Method in brief: (§2)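 Each value is a visual injury score relative to controls, with 10 meaning complete control and 0 no effect. Evaluation took place twelve to sixteen days after the 2-leaf-stage plants were treated and kept in the greenhouse.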
# [6] = test system: purple nutsedge; assay: Test B pre/postemergence purple nutsedge; type: in vivo, Cyperus rotundus; details: Postemergence
# Method in brief: as §1
# [7] = test system: smallflower flatsedge; assay: Test B flood test smallflower flatsedge; type: in vivo, Cyperus difformis
# Method in brief: as §2
# [8] = test system: corn; assay: Test B pre/postemergence corn; type: in vivo, Zea mays
# Method in brief: as §1
# [9] = test system: crabgrass; assay: Test B pre/postemergence crabgrass; type: in vivo, Digitaria sanguinalis
# Method in brief: as §1
# [10] = test system: bamyardgrass; assay: Test B flood test barnyardgrass; type: in vivo, Echinochloa crus-galli
# Method in brief: as §2
# [11] = test system: rice; assay: Test B flood test rice; type: in vivo, Oryza sativa
# Method in brief: as §2
# [12] = test system: sugar beet; assay: Test B pre/postemergence sugar beet; type: in vivo, Beta vulgaris
# Method in brief: as §1
# [13] = test system: surinam grass; assay: Test B pre/postemergence surinam grass; type: in vivo, Brachiaria decumbens
# Method in brief: as §1
# [14] = test system: wheat; assay: Test B pre/postemergence wheat; type: in vivo, Triticum aestivum
# Method in brief: as §1
# [15] = test system: velvetleaf; assay: Test B pre/postemergence velvetleaf; type: in vivo, Abutilon theophrasti
# Method in brief: as §1
# [16] = test system: bedstraw; assay: Test B pre/postemergence bedstraw; type: in vivo, Galium aparine
# Method in brief: as §1
# [17] = Preemergence, Rate 62 g/ha, scale of 0 to 10 where 0 is no effect and 10 is complete control
# [18] = Preemergence, Rate 250 g/ha, scale of 0 to 10 where 0 is no effect and 10 is complete control
# [19] = Preemergence, Rate 500 g/ha, scale of 0 to 10 where 0 is no effect and 10 is complete control
# [20] = Rate 62 g/ha, Postemergence, scale of 0 to 10 where 0 is no effect and 10 is complete control
# [21] = Rate 125 g/ha, Postemergence, scale 0 to 10
# [22] = Rate 125 g/ha, Preemergence, scale of 0 to 10 where 0 is no effect and 10 is complete control
# [23] = Rate 500 g/ha, Postemergence, scale 0 to 10, 0 no effect, 10 complete control
# [24] = Rate 62 g/ha, headed Pre-emergence (flood test species), scale 0 to 10 (0 no effect, 10 complete control)
# [25] = Rate 125 g/ha, Pre-emergence, flood test species, scale 0 to 10 where 0 is no effect and 10 is complete control
# [26] = Rate 250 g/ha, Pre-emergence, flood-test species, scale 0 to 10, 0 is no effect, 10 is complete control
# [27] = Rate 500 g/ha, Pre-emergence, flood test species, scale 0 to 10 (0 no effect, 10 complete control)
smiles,measurement,setting,value
CC(C)N(C(=O)n1oc(=O)n(CCC2OCCO2)c1=O)c1ccc(F)cc1 [Compound 219],Giant foxtail plant response rating,[1]; [17],10
same,Giant foxtail plant response rating,[1]; [18],10
same,"Plant response rating, Giant foxtail",[1]; [19],10
same,Giant foxtail plant response rating,[1]; [20],6
same,Giant foxtail plant response rating,[1]; [21],7
same,Giant foxtail plant response rating,[1]; [22],10
same,"Plant response rating (0 to 10; 0 is no effect, 10 is complete control), Giant foxtail","[1]; Rate 250 g/ha, Postemergence",8
same,Giant foxtail plant response rating,[1]; [23],9
same,Rape plant response rating,[2]; [17],0
same,Rape plant response rating,[2]; [18],6
same,"Plant response rating, Rape",[2]; [19],10
same,Rape plant response rating,[2]; [20],2
same,Rape plant response rating,[2]; [21],3
same,Rape plant response rating,[2]; [22],0
same,"Plant response rating (0 to 10; 0 is no effect, 10 is complete control), Rape","[2]; Rate 250 g/ha, Postemergence",7
same,Rape plant response rating,[2]; [23],7
same,Wild oats plant response rating,[3]; [17],2
same,Wild oats plant response rating,[3]; [18],8
same,"Plant response rating, Wild oats",[3]; [19],9
same,Wild oats plant response rating,[3]; [20],1
same,Wild oats plant response rating,[3]; [21],3
same,Wild oats plant response rating,[3]; [22],5
same,"Plant response rating (0 to 10; 0 is no effect, 10 is complete control), Wild oats","[3]; Rate 250 g/ha, Postemergence",4
same,Wild oats plant response rating,[3]; [23],6
same,Blackgrass plant response rating,[4]; [17],7
same,Blackgrass plant response rating,[4]; [18],10
same,"Plant response rating, Blackgrass",[4]; [19],10
same,Blackgrass plant response rating,[4]; [20],5
same,Blackgrass plant response rating,[4]; [21],7
same,Blackgrass plant response rating,[4]; [22],10
same,"Plant response rating (0 to 10; 0 is no effect, 10 is complete control), Blackgrass","[4]; Rate 250 g/ha, Postemergence",8
same,Blackgrass plant response rating,[4]; [23],8
same,Ducksalad plant response rating,[5]; [24],0
same,Ducksalad plant response rating,[5]; [25],0
same,Ducksalad plant response rating,[5]; [26],0
same,Ducksalad plant response rating,[5]; [27],3
same,Nutsedge plant response rating,"[6]; Rate 62 g/ha, scale of 0 to 10 where 0 is no effect and 10 is complete control",0
same,Nutsedge plant response rating,"[6]; Rate 125 g/ha, scale 0 to 10",0
same,"Plant response rating (0 to 10; 0 is no effect, 10 is complete control), Nutsedge",[6]; Rate 250 g/ha,0
same,Nutsedge plant response rating,"[6]; Rate 500 g/ha, scale 0 to 10, 0 no effect, 10 complete control",0
same,S. Flatsedge plant response rating,[7]; [24],0
same,S. Flatsedge plant response rating,[7]; [25],0
same,S. Flatsedge plant response rating,[7]; [26],0
same,S. Flatsedge plant response rating,[7]; [27],4
same,Corn plant response rating,[8]; [17],0
same,Corn plant response rating,[8]; [18],5
same,"Plant response rating, Corn",[8]; [19],7
same,Corn plant response rating,[8]; [20],0
same,Corn plant response rating,[8]; [21],0
same,Corn plant response rating,[8]; [22],0
same,"Plant response rating (0 to 10; 0 is no effect, 10 is complete control), Corn","[8]; Rate 250 g/ha, Postemergence",4
same,Corn plant response rating,[8]; [23],5
same,Crabgrass plant response rating,[9]; [17],5
same,Crabgrass plant response rating,[9]; [18],9
same,"Plant response rating, Crabgrass",[9]; [19],10
same,Crabgrass plant response rating,[9]; [20],3
same,Crabgrass plant response rating,[9]; [21],4
same,Crabgrass plant response rating,[9]; [22],8
same,"Plant response rating (0 to 10; 0 is no effect, 10 is complete control), Crabgrass","[9]; Rate 250 g/ha, Postemergence",6
same,Crabgrass plant response rating,[9]; [23],8
same,Barnyardgrass plant response rating,[10]; [24],0
same,Barnyardgrass plant response rating,[10]; [25],0
same,Barnyardgrass plant response rating,[10]; [26],8
same,Barnyardgrass plant response rating,[10]; [27],9
same,Rice plant response rating,[11]; [24],0
same,Rice plant response rating,[11]; [25],0
same,Rice plant response rating,[11]; [26],0
same,Rice plant response rating,[11]; [27],6
same,Sugarbeets plant response rating,[12]; [17],3
same,Sugarbeets plant response rating,[12]; [18],4
same,"Plant response rating, Sugarbeets",[12]; [19],8
same,Sugarbeets plant response rating,[12]; [20],4
same,Sugarbeets plant response rating,[12]; [21],4
same,Sugarbeets plant response rating,[12]; [22],4
same,"Plant response rating (0 to 10; 0 is no effect, 10 is complete control), Sugarbeets","[12]; Rate 250 g/ha, Postemergence",4
same,Sugarbeets plant response rating,[12]; [23],7
same,B. signalgrass plant response rating,[13]; [17],4
same,B. signalgrass plant response rating,"[13]; Preemergence, Rate 250 g/ha, scale 0 to 10, 0 is no effect, 10 is complete control",9
same,"Plant response rating, B. signalgrass",[13]; [19],9
same,B. signalgrass plant response rating,[13]; [20],0
same,B. signalgrass plant response rating,"[13]; Rate 125 g/ha, Postemergence, scale 0 (no effect) to 10 (complete control)",2
same,B. signalgrass plant response rating,[13]; [22],6
same,"Plant response rating (0 to 10; 0 is no effect, 10 is complete control), B. signalgrass","[13]; Rate 250 g/ha, Postemergence",5
same,B. signalgrass plant response rating,[13]; [23],8
same,Wheat plant response rating,[14]; [17],3
same,Wheat plant response rating,[14]; [18],8
same,"Plant response rating, Wheat",[14]; [19],9
same,Wheat plant response rating,[14]; [20],5
same,Wheat plant response rating,[14]; [21],6
same,Wheat plant response rating,[14]; [22],5
same,"Plant response rating (0 to 10; 0 is no effect, 10 is complete control), Wheat","[14]; Rate 250 g/ha, Postemergence",7
same,Wheat plant response rating,[14]; [23],7
same,Velvetleaf plant response rating,[15]; [17],3
same,Velvetleaf plant response rating,[15]; [18],7
same,"Plant response rating, Velvetleaf",[15]; [19],10
same,Velvetleaf plant response rating,[15]; [20],0
same,Velvetleaf plant response rating,[15]; [21],0
same,Velvetleaf plant response rating,[15]; [22],6
same,"Plant response rating (0 to 10; 0 is no effect, 10 is complete control), Velvetleaf","[15]; Rate 250 g/ha, Postemergence",2
same,Velvetleaf plant response rating,[15]; [23],4
same,Bedstraw plant response rating,[16]; [17],1
same,Bedstraw plant response rating,[16]; [18],8
same,"Plant response rating, Bedstraw",[16]; [19],9
same,Bedstraw plant response rating,[16]; [20],6
same,Bedstraw plant response rating,[16]; [21],6
same,Bedstraw plant response rating,[16]; [22],5
same,"Plant response rating (0 to 10; 0 is no effect, 10 is complete control), Bedstraw","[16]; Rate 250 g/ha, Postemergence",8
same,Bedstraw plant response rating,[16]; [23],8
